We go through 24 molecules from patent publication US9834521B2, “Choline kinase inhibitors” (ARIAD Pharmaceuticals, Inc., priority 2013, dated 2017).

Like-named read-outs stand apart in the source and are kept apart here.

One assay deals with T1, ChoKα protein (Homo sapiens, UniProt P35790).
T1 construct: made in house
Nature of the assay: Binding affinity by surface plasmon resonance (SensiQ Pioneer, FastStep). Here is the method:
KD may be measured using surface plasmon resonance (BIAcore®) technology, see, e.g., Panayotou et al, Mol. Cell. […] ChoKα protein was immobilized by standard amine coupling methods on a COOH5 sensor chip installed in a SensiQ Pioneer system. Sensograms were measured using the FastStep™ screen method with an upper concentration of 500 nM. Kinetics and affinity were obtained from fits using a 1:1 binding model.
For orientation: Surface plasmon resonance follows binding to a sensor surface in real time, without labels.

The subject of the next assay is cancer cell lines. Description: Cellular Growth Inhibition Assay (CyQuant Cell Proliferation Assay Kit). The format is cell-based. As for the experimental part: Cellular Growth Inhibition AssayVehicle or compound treated cells were assessed for cell growth after 72 hours of treatment using the CyQuant® Cell Proliferation Assay Kit (Life Technologies, Grand Island, N.Y.). […] Data are shown as mean (±SD) from ≧2 separate experiments.

Assay [1] has as its target T2, truncated form of human Choline kinase α1 that includes residues 75-457 (Homo sapiens, UniProt P35790).
T2 construct: made in house
Description: Kinase Assay, coupled (ATP regeneration) LDH/PK assay, NADH absorbance. The format is biochemical. As for the experimental part: Absorbance of NADH (340 nm) was measured over 30 min using a SpectraMax M5 (Molecular Devices). Initial reaction velocity (ΔA340/Δt) was calculated and plotted as a function of inhibitor concentration in a 2-fold dilution series. IC50 values were obtained by fitting the relative velocities to a dose-response model.

The subject of assay [2] is phosphocholine levels in MDA-MB-415 cells. Description: Phosphocholine Assay (1H-NMR) in MDA-MB-415 cells. The assay is classed as cell-based. To be noted: Homo sapiens, 24 hours of treatment, read-out: IC50 of pCh. As for the experimental part: 5×10^6 cells of each line were grown in the presence of increasing concentration of the test compound or vehicle (DMSO) for 24 hours, then counted and viability checked by Trypan Blue Exclusion protocol. 5×10^6 viable cells were washed twice in ice cold D-PBS, then solubilized by vortexing for 30 seconds in 6 mL ice cold 100% methanol. 6 mL of chloroform and 6 mL of water were added and the mixture vortexed again. After centrifugation for 10 minutes @ 5,220 rpms, 10 mL of the aqueous phase is removed and lyophilized. The samples were analyzed by ^1H-NMR to determine phosphocholine levels.
Dose dependent inhibition of phosphocholine levels in MDA-MB-415 cells by the compound provided in Example 55 was determined by ^1H-NMR analysis after 24 hours of treatment with increasing concentrations consisting of 0.25 μM, 0.50 μM, 1.0 μM, 2.0 μM, 4.0 μM, 8.0 μM and 16 μM.

[3] abbreviates: SPR, 1:1 binding model, upper concentration 500 nM, read-out: Kd.
The mark [4] stands for this setting: 72 hours of treatment, cell line not named, read-out: GI50.
The mark [5] stands for this setting: Examples not designated with an asterisk, footnote prints version 1 of the Kinase Assay, read-out: IC50.
[6] abbreviates: Examples designated with an asterisk (*): version 1 of the Kinase Assay, 200 nM enzyme, read-out: IC50.

T2 sequence (P35790 75-457): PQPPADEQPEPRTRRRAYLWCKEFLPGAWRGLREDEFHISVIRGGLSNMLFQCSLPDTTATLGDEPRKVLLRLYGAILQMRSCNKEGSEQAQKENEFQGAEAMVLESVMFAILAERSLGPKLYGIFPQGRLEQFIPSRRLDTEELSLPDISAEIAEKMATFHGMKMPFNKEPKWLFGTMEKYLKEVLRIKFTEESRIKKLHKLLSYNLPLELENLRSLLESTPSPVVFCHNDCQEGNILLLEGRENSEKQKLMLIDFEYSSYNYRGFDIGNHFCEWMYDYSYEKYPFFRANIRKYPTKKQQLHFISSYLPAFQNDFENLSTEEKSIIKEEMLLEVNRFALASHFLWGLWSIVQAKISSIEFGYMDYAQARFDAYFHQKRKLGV
T1 sequence (P35790 75-457): as above

Usually Kd stands for the concentration at which binding is half-saturated. The GI50 is the concentration that inhibits growth by half. A word on the IC50: it is the midpoint of a concentration-inhibition curve. `CN1CCCN(Cc2ccc(-c3ccc(C(=O)N4CCCN(C)CC4)cc3)cc2)CC1` [Example 37, (4-methyl-1,4-diazepan-1-yl)(4′-((4-methyl-1,4-diazepan-1-yl)methyl)-[1,1′-biphenyl]-4-yl)methanone]: the dissociation constant (Kd) on ChoKα protein was < 200 nM. In the assay on cancer cell lines (72 h), the GI50 was > 20000 nM. Also, the IC50 in assay [1] was < 200 nM.

Take `CN1CCCN(Cc2ccc(-c3ccc(C(=O)N4CCCN(C)CC4)cc3)c(C#N)c2)CC1` [Example 33, 4-((4-methyl-1,4-diazepan-1-yl)methyl)-4′-(4-methyl-1,4-diazepane-1-carbonyl)-[1,1′-biphenyl]-2-carbonitrile]: the equilibrium dissociation constant (Kd) on ChoKα protein (setting [3]) is < 200 nM. The GI50 in the assay on cancer cell lines (setting [4]) was > 20000 nM. Also, in assay [1] (setting [5]), the half-maximal inhibitory concentration (IC50) was < 200 nM.

Take `CN1CCCN(Cc2ccc(-c3ccc(CN4CCCN(C)CC4)c(F)c3F)cc2)CC1` [Example 41, 4,4′-((2,3-difluoro-[1,1′-biphenyl]-4,4′-diyl)bis(methylene))bis(1-methyl-1,4-diazepane)]: the Kd on ChoKα protein is < 100 nM. For the same molecule, in the assay on cancer cell lines (72 h), the GI50 is < 5000 nM. Further, in assay [1], the 50% inhibitory concentration (IC50) is < 100 nM.

For the molecule `CN1CCCN(Cc2ccc(-c3ccc(CN4CCCN(C)CC4)cc3C#N)c(F)c2)CC1` [Example 55, 2′-fluoro-4,4′-bis((4-methyl-1,4-diazepan-1-yl)methyl)-[1,1′-biphenyl]-2-carbonitrile], the IC50 was 750 nM in assay [2] and < 200 nM in assay [1]. The Kd at ChoKα protein was < 100 nM. Besides, the concentration for 50% growth inhibition (GI50) in the assay with cancer cell lines (72 h) is < 5000 nM.

With `CN1CCCN(Cc2ccc(-c3ccc(CN4CCCN(C)CC4)c(F)c3)cc2)CC1` [Example 42, 4,4′-((3-fluoro-[1,1′-biphenyl]-4,4′-diyl)bis(methylene))bis(1-methyl-1,4-diazepane)], the dissociation constant Kd at ChoKα protein (setting [3]) is < 200 nM. The 50% growth inhibitory concentration (GI50) in the assay with cancer cell lines (setting [4]) is < 5000 nM. The IC50 in assay [1] (setting [5]) is < 200 nM.

As to `CN1CCCN(Cc2ccc(-c3ccc(CN4CCCN(C)CC4)cc3C#N)cc2)CC1` [Example 14, 4,4′-bis((4-methyl-1,4-diazepan-1-yl)methyl)-[1,1′-biphenyl]-2-carbonitrile], the dissociation constant (Kd) on ChoKα protein is < 50 nM. Moreover, the concentration for 50% growth inhibition (GI50) with cancer cell lines (72 h) is < 5000 nM. Moreover, the IC50 in assay [1] was < 100 nM.

Regarding `CN1CCCN(Cc2ccc(-c3ccc(S(N)(=O)=O)cc3)c(C#N)c2)CC1` [Example 87, 2′-cyano-4′-((4-methyl-1,4-diazepan-1-yl)methyl)-[1,1′-biphenyl]-4-sulfonamide], the Kd at ChoKα protein (setting [3]) was < 100 nM. The concentration for 50% growth inhibition (GI50) in the assay with cancer cell lines (setting [4]) is > 20000 nM. Further, in assay [1] (setting [5]), the 50% inhibitory concentration (IC50) was < 100 nM.

Take `CN1CCCN(Cc2ccc(-c3ccc(CN4CCCN(C)CC4)c(Cl)c3)cc2)CC1` [Example 43, 4,4′-((3-chloro-[1,1′-biphenyl]-4,4′-diyl)bis(methylene))bis(1-methyl-1,4-diazepane)]: on ChoKα protein, the Kd is < 200 nM. The 50% growth inhibitory concentration (GI50) in the assay on cancer cell lines (72 h) is < 5000 nM. Further, the concentration for half-maximal inhibition (IC50) in assay [1] was < 200 nM.

For `CN1CCCN(Cc2ccc(-c3cc(F)c(CN4CCCN(C)CC4)c(F)c3)cc2)CC1` [Example 40, 4,4′-((3,5-difluoro-[1,1′-biphenyl]-4,4′-diyl)bis(methylene))bis(1-methyl-1,4-diazepane)], the Kd at ChoKα protein was < 60000 nM. Besides, the 50% growth inhibitory concentration (GI50) in the assay with cancer cell lines (72 h) is < 20000 nM. Besides, the IC50 in assay [1] is < 200 nM.

For `CN1CCCN(Cc2ccc(-c3ccc(CN4CCCN(C)CC4)cc3C#N)c(C#N)c2)CC1` [Example 56, 4,4′-bis((4-methyl-1,4-diazepan-1-yl)methyl)-[1,1′-biphenyl]-2,2′-dicarbonitrile], on ChoKα protein (setting [3]), the Kd was < 100 nM. In addition, the 50% growth inhibitory concentration (GI50) in the assay on cancer cell lines (setting [4]) was < 20000 nM. Moreover, in assay [1] (setting [5]), the half-maximal inhibitory concentration (IC50) is < 100 nM.

On to `CC(=O)NNC(=O)CCc1ccc(-c2ccc(CN3CCCN(C)CC3)cc2C#N)cc1` [Example 83, N′-acetyl-3-(2′-cyano-4′-((4-methyl-1,4-diazepan-1-yl)methyl)-[1,1′-biphenyl]-4-yl)propanehydrazide], for which the dissociation constant Kd at ChoKα protein (setting [3]) is < 50 nM. Further, in the assay on cancer cell lines (setting [4]), the 50% growth inhibitory concentration (GI50) was > 20000 nM. The 50% inhibitory concentration (IC50) in assay [1] (setting [5]) was < 100 nM.

Consider `CN1CCCN(Cc2ccc(-c3ccc(C(=O)NC4CC4)cc3)c(C#N)c2)CC1` [Example 32, 2′-cyano-N-cyclopropyl-4′-((4-methyl-1,4-diazepan-1-yl)methyl)-[1,1′-biphenyl]-4-carboxamide], for which the dissociation constant Kd at ChoKα protein (setting [3]) was < 60000 nM. For the same molecule, the GI50 with cancer cell lines (setting [4]) is < 20000 nM. Further, the IC50 in assay [1] (setting [5]) is < 200 nM.

For the molecule `CN1CCCN(Cc2ccc(-c3ccc(C4(NS(C)(=O)=O)CC4)cc3)c(C#N)c2)CC1` [Example 82, N-(1-(2′-cyano-4′-((4-methyl-1,4-diazepan-1-yl)methyl)-[1,1′-biphenyl]-4-yl)cyclopropyl)methanesulfonamide], the Kd at ChoKα protein (setting [3]) is < 50 nM. Further, the 50% growth inhibitory concentration (GI50) with cancer cell lines (setting [4]) is < 20000 nM. In addition, the concentration for half-maximal inhibition (IC50) in assay [1] (setting [5]) is < 100 nM.

For `CN1CCCN(Cc2ccc(-c3ccc(CN4CCC(O)CC4)cc3)c(C#N)c2)CC1` [Example 4, 4′-((4-hydroxypiperidin-1-yl)methyl)-4-((4-methyl-1,4-diazepan-1-yl)methyl)-[1,1′-biphenyl]-2-carbonitrile], at ChoKα protein (setting [3]), the dissociation constant Kd is < 50 nM. In addition, the GI50 with cancer cell lines (setting [4]) is < 20000 nM. The IC50 in assay [1] (setting [5]) was < 100 nM.

In the case of `CN1CCCN(Cc2ccc(-c3ccc(CN4CCCN(C)CC4)cc3F)cc2)CC1` [Example 44, 4,4′-((2-fluoro-[1,1′-biphenyl]-4,4′-diyl)bis(methylene))bis(1-methyl-1,4-diazepane)], the dissociation constant Kd at ChoKα protein is < 200 nM. The GI50 in the assay with cancer cell lines (72 h) was < 5000 nM. Besides, the IC50 in assay [1] was < 200 nM.

`CN1CCCN(Cc2ccc(-c3ccc4[nH]ncc4c3)c(C#N)c2)CC1` [Example 92, 2-(1H-indazol-5-yl)-5-((4-methyl-1,4-diazepan-1-yl)methyl)benzonitrile]: the dissociation constant (Kd) at ChoKα protein (setting [3]) is < 50 nM. Further, in the assay on cancer cell lines (setting [4]), the GI50 is > 20000 nM. Also, the IC50 in assay [1] (setting [5]) is < 100 nM.

On to `CN1CCCN(Cc2ccc(-c3ccc4cn[nH]c4c3)c(C#N)c2)CC1` [Example 89, 2-(1H-indazol-6-yl)-5-((4-methyl-1,4-diazepan-1-yl)methyl)benzonitrile], for which the dissociation constant Kd at ChoKα protein (setting [3]) was < 50 nM. The concentration for 50% growth inhibition (GI50) with cancer cell lines (setting [4]) is > 20000 nM. Besides, the half-inhibitory concentration (IC50) in assay [1] (setting [5]) was < 100 nM.

As to `CN1CCCN(Cc2ccc(-c3ccc(NS(C)(=O)=O)cc3)c(C#N)c2)CC1` [Example 104, N-(2′-cyano-4′-((4-methyl-1,4-diazepan-1-yl)methyl)-[1,1′-biphenyl]-4-yl)methanesulfonamide], the Kd at ChoKα protein (setting [3]) is < 50 nM. Besides, in the assay with cancer cell lines (setting [4]), the GI50 was > 20000 nM. For the same molecule, the 50% inhibitory concentration (IC50) in assay [1] (setting [5]) was < 100 nM.

Consider `Cc1cc(C(=O)N2CCCN(C)CC2)ccc1-c1ccc(CN2CCCN(C)CC2)cc1` [Example 50, (4-methyl-1,4-diazepan-1-yl)(2-methyl-4′-((4-methyl-1,4-diazepan-1-yl)methyl)-[1,1′-biphenyl]-4-yl)methanone], for which the equilibrium dissociation constant (Kd) at ChoKα protein (setting [3]) is < 60000 nM. The GI50 in the assay on cancer cell lines (setting [4]) is < 5000 nM. In addition, the IC50 in assay [1] (setting [5]) is < 200 nM.

On to `COc1ccc(-c2cc(C(=O)N3CCCN(C)CC3)ccc2-c2ccc(CN3CCCN(C)CC3)cc2C#N)cc1` [Example 66, 4″-methoxy-4-((4-methyl-1,4-diazepan-1-yl)methyl)-4′-(4-methyl-1,4-diazepane-1-carbonyl)-[1,1′:2′,1″-terphenyl]-2-carbonitrile], for which, on ChoKα protein (setting [3]), the dissociation constant Kd was < 50 nM. Also, in the assay on cancer cell lines (setting [4]), the GI50 was < 20000 nM. Further, in assay [1] (setting [5]), the concentration for half-maximal inhibition (IC50) is < 100 nM.

For `CN1CCCN(Cc2ccc(CNc3cccc(C(N)=O)c3)cc2)CC1` [Example 152, 3-((4-((4-methyl-1,4-diazepan-1-yl)methyl)benzyl)amino)benzamide], the Kd at ChoKα protein (setting [3]) is < 60000 nM. The concentration for half-maximal inhibition (IC50) in assay [1] (setting [6]) is < 200 nM.

As for `CNS(=O)(=O)c1ccc(-c2ccc(CN3CCCN(C)CC3)cc2C#N)cc1` [Example 86, 2′-cyano-N-methyl-4′-((4-methyl-1,4-diazepan-1-yl)methyl)-[1,1′-biphenyl]-4-sulfonamide], the Kd at ChoKα protein (setting [3]) is < 50 nM. Also, the GI50 in the assay with cancer cell lines (setting [4]) was < 5000 nM. Moreover, the IC50 in assay [1] (setting [5]) was < 100 nM.

As to `CCN(CC)C1CCN(Cc2ccc(-c3ccc(CN4CCCN(C)CC4)cc3C#N)cc2)CC1` [Example 15, 4′-((4-(diethylamino)piperidin-1-yl)methyl)-4-((4-methyl-1,4-diazepan-1-yl)methyl)-[1,1′-biphenyl]-2-carbonitrile], the dissociation constant Kd at ChoKα protein (setting [3]) is < 50 nM. The IC50 in assay [1] (setting [5]) is < 100 nM.

As for `CN1CCCN(Cc2ccc(CN3CCC(N4CCCC4)CC3)cc2)CC1` [Example 148, 1-methyl-4-(4-((4-(pyrrolidin-1-yl)piperidin-1-yl)methyl)benzyl)-1,4-diazepane], the equilibrium dissociation constant (Kd) at ChoKα protein (setting [3]) was < 60000 nM. For the same molecule, the IC50 in assay [1] (setting [6]) was < 200 nM.
